Measurements from patent US4939175A, “Use of N,N-dimethyl-1-[1-(4-chlorophenyl)cyclobutyl]-3-methylbutylamine” (priority 1988, dated 1990).

Assays:
[1] = test system: dopamine neuron, norepinephrine and serotonin neuron; assay: Activation of dopamine, norepinephrine and serotonin neuron
[2] = Japanese Unexamined Patent Publication No. 181,043 (1982); cited from earlier work
[3] = test system: memory and learning; assay: Effect on memory and learning in preclinical studies; assay type: in vivo
[4] = test system: spontaneous movement of mice; assay: Spontaneous movement of mice; design: species or system SlC:ddy male mice; settings: mouse, in vivo
Method: Effect of the test samples on the sponteneous movement of mice
The test sample was administered orally to SlC:ddy male mice. Immediately after, the amount of movement activity of the test mice was measured for 16 hours, at the time of 1, 2, 4, 8 and 16 hours respectively after the oral administration, by means of spontaneous movement measuring system (displacement measuring type).
Methamphetamine was used as the reference drug and distilled water was used as control sample.
The obtained results are shown in FIG. 1, columns and bars represent the mean±S.D. and statistical significance was evaluated by the multiple comparison test of Dunnet's type.

## CC(C)CC(N(C)C)C1(c2ccc(Cl)cc2)CCC1 (centres unmarked) [N,N-dimethyl-1-[1-(4-chlorophenyl)cyclobutyl]-3-methylbutylamine]
[1]
  activation of dopamine neuron in addition to both norepinephrine and serotonin neuron: intensive activation of dopamine neuron in addition to both norepinephrine and serotonin neuron
  effect on dopamine activity: enhancing effect of dopamine activity
[2]
  therapeutical effect as an antidepressant: has a therapeutical effect as an antidepressant
[3]
  effect on memory and learning: intensive effect on memory and learning
[4]
  spontaneous movement: increase of spontaneous movement
